Assay results from ChEMBL document CHEMBL1201862, “PubChem BioAssay data set” (2004).
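48-hour exposure; five concentrations; linearly interpolated endpoints. The concentration for 50% growth inhibition is given as GI50.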 Calls of active or inactive are those of the source. Cut-off read from the data, not from the text of the source: active = GI50 up to about 1.1 µM and inactive = higher.

What was measured:
Test in all cases: DTP human tumour cell line panel, 48 h
SF-295 = system: SF-295
SW-620 = system: SW-620
SR = system: SR
ACHN = system: ACHN
SK-MEL-2 = system: SK-MEL-2
HL-60 = system: HL-60
SNB-19 = system: SNB-19
SK-OV-3 = system: SK-OV-3
SNB-78 = system: SNB-78
HOP-92 = system: HOP-92
MOLT-4 = system: MOLT-4
HCC 2998 = system: HCC 2998
SNB-75 = system: SNB-75
NCI-H23 = system: NCI-H23
U-251 = system: U-251
UACC-62 = system: UACC-62
DLD-1 = system: DLD-1
HT-29 = system: HT-29
CCRF-CEM = system: CCRF-CEM
RXF 393 = system: RXF 393
HCT-116 = system: HCT-116
EKVX = system: EKVX
SN12C = system: SN12C
TK-10 = system: TK-10
DMS-114 = system: DMS-114
SF-268 = system: SF-268
RXF 631 = system: RXF 631
OVCAR-4 = system: OVCAR-4
KM-20L2 = system: KM-20L2
SK-MEL-28 = system: SK-MEL-28
IGROV-1 = system: IGROV-1
M19-MEL = system: M19-MEL
RPMI-8226 = system: RPMI-8226
OVCAR-5 = system: OVCAR-5
HOP-62 = system: HOP-62
HCT-15 = system: HCT-15
UACC-257 = system: UACC-257
A498 = system: A498
A549 = system: A549
HOP-18 = system: HOP-18
K562 = system: K562
NCI-H226 = system: NCI-H226
COLO 205 = system: COLO 205
NCI-H460 = system: NCI-H460
M14 = system: M14
OVCAR-3 = system: OVCAR-3
NCI-H522 = system: NCI-H522
KM12 = system: KM12
LOX IMVI = system: LOX IMVI
OVCAR-8 = system: OVCAR-8
LXFL 529 = system: LXFL 529
SF-539 = system: SF-539
Malme-3M = system: Malme-3M
786-0 = system: 786-0
UO-31 = system: UO-31
CAKI-1 = system: CAKI-1
DMS-273 = system: DMS-273
SK-MEL-5 = system: SK-MEL-5
XF498 = system: XF498

Measured: GI50

O=C(COc1ccccc1)NS(=O)(=O)c1ccccc1
> 100 µM: HCT-15
inactive: SF-295 > 100 µM | SW-620 > 100 µM | SR > 100 µM | ACHN > 100 µM | SK-MEL-2 > 100 µM | HL-60 > 100 µM | SNB-19 > 100 µM | SK-OV-3 > 100 µM | SNB-78 > 100 µM | HOP-92 > 100 µM | MOLT-4 > 100 µM | HCC 2998 > 100 µM | SNB-75 > 100 µM | NCI-H23 > 100 µM | U-251 > 100 µM | UACC-62 > 100 µM | DLD-1 > 100 µM | HT-29 > 100 µM | CCRF-CEM > 100 µM | RXF 393 > 100 µM | HCT-116 > 100 µM | EKVX > 100 µM | SN12C > 100 µM | TK-10 > 100 µM | DMS-114 > 100 µM | SF-268 > 100 µM | RXF 631 > 100 µM | OVCAR-4 > 100 µM | KM-20L2 > 100 µM | SK-MEL-28 > 100 µM | IGROV-1 > 100 µM | M19-MEL > 100 µM | RPMI-8226 > 100 µM | OVCAR-5 > 100 µM | HOP-62 > 100 µM | UACC-257 > 100 µM | A498 > 100 µM | A549 > 100 µM | HOP-18 > 100 µM | K562 > 100 µM | NCI-H226 > 100 µM | COLO 205 > 100 µM | NCI-H460 > 100 µM | M14 > 100 µM | OVCAR-3 > 100 µM | NCI-H522 > 100 µM | KM12 > 100 µM | LOX IMVI > 100 µM | OVCAR-8 > 100 µM | LXFL 529 > 100 µM | SF-539 > 100 µM | Malme-3M > 100 µM | 786-0 > 100 µM | UO-31 > 100 µM | CAKI-1 > 100 µM

Nc1ccn(C2OC(C(O)CO)C(O)C2O)c(=O)n1 (stereo unspecified)
> 100 µM: HCT-15
inactive: SF-295 > 100 µM | SW-620 > 100 µM | ACHN > 100 µM | HL-60 > 100 µM | SK-OV-3 > 100 µM | HOP-92 > 100 µM | MOLT-4 > 100 µM | NCI-H23 > 100 µM | U-251 > 100 µM | DLD-1 > 100 µM | CCRF-CEM > 100 µM | RXF 393 > 100 µM | HCT-116 > 100 µM | EKVX > 100 µM | SN12C > 100 µM | TK-10 > 100 µM | DMS-114 > 100 µM | SF-268 > 100 µM | RXF 631 > 100 µM | KM-20L2 > 100 µM | SK-MEL-28 > 100 µM | RPMI-8226 > 100 µM | DMS-273 > 100 µM | HOP-62 > 100 µM | A498 > 100 µM | A549 > 100 µM | HOP-18 > 100 µM | K562 > 100 µM | SK-MEL-5 > 100 µM | COLO 205 > 100 µM | NCI-H460 > 100 µM | M14 > 100 µM | NCI-H522 > 100 µM | LOX IMVI > 100 µM | OVCAR-8 > 100 µM | LXFL 529 > 100 µM | SF-539 > 100 µM | UO-31 69.2 µM | XF498 > 100 µM

Cc1ccccc1C(C#N)/C(=N/NC(N)=S)C(=O)Nc1c(C)cccc1C (stereo unspecified)
inactive: SF-295 > 100 µM | SW-620 > 100 µM | ACHN > 100 µM | SK-MEL-2 > 100 µM | HL-60 > 100 µM | SNB-19 > 100 µM | SNB-78 > 100 µM | HOP-92 > 100 µM | MOLT-4 88.1 µM | HCC 2998 > 100 µM | SNB-75 > 100 µM | NCI-H23 > 100 µM | U-251 > 100 µM | UACC-62 33.4 µM | DLD-1 > 100 µM | HT-29 > 100 µM | CCRF-CEM > 100 µM | RXF 393 > 100 µM | HCT-116 > 100 µM | EKVX > 100 µM | SN12C > 100 µM | TK-10 > 100 µM | DMS-114 10.4 µM | SF-268 > 100 µM | RXF 631 > 100 µM | OVCAR-4 > 100 µM | KM-20L2 > 100 µM | SK-MEL-28 > 100 µM | IGROV-1 > 100 µM | M19-MEL 80 µM | RPMI-8226 9.12 µM | OVCAR-5 > 100 µM | HOP-62 > 100 µM | UACC-257 > 100 µM | A549 75.9 µM | HOP-18 > 100 µM | SK-MEL-5 46.3 µM | NCI-H226 > 100 µM | COLO 205 > 100 µM | NCI-H460 > 100 µM | M14 > 100 µM | OVCAR-3 > 100 µM | KM12 > 100 µM | LOX IMVI > 100 µM | OVCAR-8 > 100 µM | LXFL 529 > 100 µM | Malme-3M 83.8 µM | 786-0 > 100 µM | UO-31 > 100 µM | XF498 32.8 µM
